Source: patent US10328049B2, “Infant nutritional product with RRR alpha-tocopherol” (ABBOTT LABORATORIES, priority 2013, dated 2019)

Columns and labels:
[1] = cited from earlier work; for Activity as alpha-TE: alpha-tocopherol equivalents (TE), table from Vitamin E in Health and Disease, 1993, p. 21
[2] = Brain analysis of infant brain (tocopherol content and correlations); type: in vivo, human; conditions: formula fed infant brain
Source text: Cholesterol is a major component of myelin, and thus, is a marker for extent of CNS myelination. Glutamate is a neurotransmitter, which is reported to stimulate neuron outgrowth and branching. […] Accordingly, an excessively high level of dietary gamma-tocopherol may hinder the brain uptake of RRR alpha-tocopherol, and thus, may hinder CNS development.
Most commercial infant formulas are fortified with synthetic alpha-tocopherols. It has been reported that the plasma […] of the 2R isomers are about equal for animals fed a diet containing synthetic alpha-tocopherols. These findings indicate that RRR alpha-tocopherol is preferably absorbed into the brain or it is metabolized at a much slower rate than RSR, RRS and RSS tocopherols.

| share of the alpha-tocopherol in brain that is RRR alpha-tocopherol [2] | Compound | Activity as alpha-TE [1] [mg/mg compound] | assigned vitamin E activity ([1]; assigned reference activity) |
| --- | --- | --- | --- |
| – | Cc1cc(O)cc2c1O[C@](C)(CCC[C@H](C)CCC[C@H](C)CCCC(C)C)CC2 [RRR delta-tocopherol] | 0.03 | – |
| – | Cc1c(O)cc2c(c1C)O[C@](C)(CCC[C@H](C)CCC[C@H](C)CCCC(C)C)CC2 [RRR gamma-tocopherol] | 0.1 | – |
| – | CC(C)=CCC/C(C)=C/CC/C(C)=C/CC[C@]1(C)CCc2c(C)c(O)cc(C)c2O1 [RRR beta-tocotrienol] | 0.05 | – |
| – | CC(C)=CCC/C(C)=C/CC/C(C)=C/CC[C@]1(C)CCc2c(C)c(O)c(C)c(C)c2O1 [RRR alpha-tocotrienol] | 0.3 | – |
| – | Cc1cc(O)c(C)c2c1O[C@](C)(CCC[C@H](C)CCC[C@H](C)CCCC(C)C)CC2 [RRR beta-tocopherol] | 0.5 | – |
| – | CC(=O)Oc1c(C)c(C)c2c(c1C)CCC(C)(CCC[C@H](C)CCC[C@H](C)CCCC(C)C)O2 (mixture of isomers) [Synthetic alpha-tocopherol acetate, alpha-tocopherol acetate] | 0.74 | – |
| over 60% | Cc1c(C)c2c(c(C)c1O)CC[C@@](C)(CCC[C@H](C)CCC[C@H](C)CCCC(C)C)O2 [RRR alpha-tocopherol] | 1.0 | 1 mg alpha-tocopherol equivalent (TE) per milligram |
